The IC50 is the concentration needed to halve the response being measured. One may read the inhibition as the relative decrease from the control value, in per cent. High values mean a strong effect, low ones a weak effect.

This is an account of results in ChEMBL document CHEMBL5550215, “Discovery of Novel Imidazo[1,2-a]pyridine-Based HDAC6 Inhibitors as an Anticarcinogen with a Cardioprotective Effect” (J Med Chem, 2024).

Each structure is given as a SMILES string. Active and inactive are the calls of the source. No cut-off for these calls is given here. A value given as a limit tells only on which side of the number the result lay.

For one assay, the system named is SMMC-7721. The assay is described as follows: Antiproliferative activity against human SMMC-7721 cells assessed as inhibition of cell growth by MTT assay. Background: Formazan colour is commonly taken as a measure of viable cells.
For assay [1], the system named is H9c2. The assay is described as follows: Protection against H2O2 induced myocardial cell injury in rat H9c2 cells at 5 uM pretreated for 24 hrs followed by H2O2 exposure and measured after 1.5 hrs (reference value: 41.79+/-1.59%). It counts as functional. The note with it: time 25.5 hrs.
A further assay concerns PC-3. In words: Antiproliferative activity against human PC-3 cells assessed as inhibition of cell growth by MTT assay.
In a further assay the test system is NCI-H460. In words: Antiproliferative activity against human NCI-H460 cells assessed as inhibition of cell growth by MTT assay.
Assay [2] has as its system H9c2. The assay is described as follows: Protection against H2O2 induced myocardial cell injury in rat H9c2 cells at 10 uM pretreated for 24 hrs followed by H2O2 exposure and measured after 1.5 hrs (reference value: 17.91 to 57.32%). The format is functional. The note with it: time 25.5 hrs.
The next assay relates to TE-1. In words: Antiproliferative activity against human TE-1 cells assessed as inhibition of cell growth by MTT assay.
For a further assay, the system named is PANC-1. The assay is described as follows: Antiproliferative activity against human PANC-1 cells assessed as inhibition of cell growth by MTT assay.
A further assay relates to MGC-803. In words: Antiproliferative activity against human MGC-803 cells assessed as inhibition of cell growth by MTT assay.
A further assay concerns HCT-116. The assay is described as follows: Antiproliferative activity against human HCT-116 cells assessed as inhibition of cell growth by MTT assay.
For assay [3], the system named is H9c2. In words: Protection against H2O2 induced myocardial cell injury in rat H9c2 cells assessed as fold change at 5 uM pretreated for 24 hrs followed by H2O2 exposure and measured after 1.5 hrs relative to H2O2 alone. It counts as functional. The note with it: time 25.5 hrs.
The target in assay [4] is T1, Protein deacetylase HDAC6 (Homo sapiens) (UniProt Q9UBN7).
T1 sequence (whole entry): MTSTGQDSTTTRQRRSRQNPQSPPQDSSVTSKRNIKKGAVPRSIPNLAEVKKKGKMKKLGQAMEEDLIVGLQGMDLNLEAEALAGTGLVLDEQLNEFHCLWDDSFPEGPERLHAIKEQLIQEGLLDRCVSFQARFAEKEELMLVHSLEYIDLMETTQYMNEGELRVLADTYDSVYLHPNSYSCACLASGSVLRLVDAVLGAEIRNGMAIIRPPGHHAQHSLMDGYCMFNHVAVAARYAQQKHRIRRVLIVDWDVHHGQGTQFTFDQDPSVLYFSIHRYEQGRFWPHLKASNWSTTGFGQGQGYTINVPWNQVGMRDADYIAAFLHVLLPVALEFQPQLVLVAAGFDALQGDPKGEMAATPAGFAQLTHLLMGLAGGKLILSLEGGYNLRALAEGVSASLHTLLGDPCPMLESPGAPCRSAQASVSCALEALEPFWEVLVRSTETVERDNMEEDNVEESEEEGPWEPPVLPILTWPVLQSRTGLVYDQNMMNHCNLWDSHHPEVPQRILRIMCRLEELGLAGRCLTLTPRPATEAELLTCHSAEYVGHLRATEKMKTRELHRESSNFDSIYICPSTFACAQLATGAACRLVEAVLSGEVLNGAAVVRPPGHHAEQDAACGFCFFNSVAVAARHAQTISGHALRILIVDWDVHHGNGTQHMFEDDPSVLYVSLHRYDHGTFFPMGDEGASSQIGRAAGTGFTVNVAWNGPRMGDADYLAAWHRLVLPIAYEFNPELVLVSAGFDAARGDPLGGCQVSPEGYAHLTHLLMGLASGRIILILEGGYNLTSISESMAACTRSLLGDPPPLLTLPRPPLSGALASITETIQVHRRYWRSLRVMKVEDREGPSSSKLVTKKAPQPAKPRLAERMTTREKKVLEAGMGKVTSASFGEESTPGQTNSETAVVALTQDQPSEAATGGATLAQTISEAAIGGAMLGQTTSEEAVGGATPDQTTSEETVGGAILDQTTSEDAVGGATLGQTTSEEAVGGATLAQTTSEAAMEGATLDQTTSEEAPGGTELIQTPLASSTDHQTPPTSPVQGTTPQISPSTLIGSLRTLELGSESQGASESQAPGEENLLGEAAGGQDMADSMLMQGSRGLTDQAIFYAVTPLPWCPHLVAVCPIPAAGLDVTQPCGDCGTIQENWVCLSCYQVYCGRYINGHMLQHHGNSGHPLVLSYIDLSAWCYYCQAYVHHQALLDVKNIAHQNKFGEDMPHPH
The following applies: dose 100.0 nM.
Description: Inhibition of HDAC6 (unknown origin) at 100 nM relative to control

Assay [5] has as its system H9c2. The assay is described as follows: Protection against H2O2 induced myocardial cell injury in rat H9c2 cells assessed as fold change at 10 uM pretreated for 24 hrs followed by H2O2 exposure and measured after 1.5 hrs relative to H2O2 alone. It counts as functional. The note with it: time 25.5 hrs.
Assay [6] deals with Mus musculus. In words: Cardioprotective activity against myocardial ischemia/reperfusion induced C57BL/6J mouse model assessed as effect on infarct size of mouse heart at 10 mg/kg by TTC staining based analysis. It counts as functional, organism-based.
The subject of assay [7] is Mus musculus. The assay is described as follows: Cardioprotective activity against myocardial ischemia/reperfusion induced C57BL/6J mouse model assessed as reduction in ST-segment elevation at 10 mg/kg. The format is functional, organism-based.

As to `Cc1ccc(-c2cc(C(=O)NCc3ccc(C(=O)NO)cc3)c3nccn3c2)cc1`, the IC50 with SMMC-7721 was 1850 nM; with PC-3 it was greater than 10 µM; in the assay with NCI-H460, greater than 10 µM; in the assay with TE-1, 5.54 µM; with PANC-1 it was 6.15 µM; with MGC-803, 1170 nM. Moreover, the IC50 in the assay with HCT-116 was greater than 10 µM. The Activity with H9c2 [1] came to 83.58%; in the assay with H9c2 [2] it was 84.83%.
On to `O=c1cc(-c2ccc(O)c(O)c2)oc2cc(O)cc(O)c12` [LUTEOLIN], for which the “fold change (FC)” value in the assay with H9c2 [3] turned out to be 2.07; in the assay on H9c2 [5], 2.53. The Activity turned out to be 86.37% in the assay with H9c2 [1] and 91.43% in the assay on H9c2 [2]. The compound also gave an inhibition in assay [4] of 1%.
For the compound `O=C(CCCCCCC(=O)Nc1ccccc1)NO` [VORINOSTAT], the result in the assay with Mus musculus [6] was inactive. In the assay with H9c2 [2], the Activity is reported as 71.54%. Besides, in the assay with TE-1, the IC50 is 2.25 µM. Besides, the outcome in the assay on Mus musculus [7] was Active.
